The record followed here is patent US20240158446A1, “CYCLIC COMPOUND HAVING SELECTIVE INHIBITORY ACTION ON KRAS OVER HRAS AND NRAS” (CHUGAI SEIYAKU KABUSHIKI KAISHA, priority 2021, published 2024).

The target of experiment [1] is GDP-bound NRAS wild-type protein (Homo sapiens, UniProt P01111). In words: Binding to NRAS by surface plasmon resonance (SPR), Single Cycle Kinetics. Particulars: SPR, GDP-bound NRAS wild-type protein vs GDP-bound KRAS wild-type protein. A general note: In SPR one partner is held on a chip, and binding of the other changes the refractive index at the surface.
Experiment [2] addresses GDP-bound KRAS wild-type protein (Homo sapiens, UniProt P01116). As to the kind of experiment: Binding to KRAS by surface plasmon resonance (SPR), Single Cycle Kinetics. Particulars: GDP-bound KRAS wild-type protein, read-out: KRAS KD.
The target of experiment [3] is GDP-bound HRAS wild-type protein (Homo sapiens, UniProt P01112). As to the kind of experiment: Binding to HRAS by surface plasmon resonance (SPR), Single Cycle Kinetics. Particulars: SPR, GDP-bound HRAS wild-type protein vs GDP-bound KRAS wild-type protein.
[4] abbreviates: SPR Single Cycle Kinetics, 1:1 binding model.

Each structure is given as a SMILES string. Read-outs that look alike come from different tables or passages of the source. Where a SMILES comes first, the peptide text is derived from it. Bridges are numbered along the chain shown (N, C = ends). [ ]: non-standard residue; d: D form. The star is where a group is joined. hPhe(3,5-F2-4-CF3) = N[C@@H](CCc1cc(F)c(C(F)(F)F)c(F)c1)C(=O)O; hPhe(3-Cl-4-CF3) = N[C@@H](CCc1ccc(C(F)(F)F)c(Cl)c1)C(=O)O; NPrPhe(4-CF3) = CCCN[C@@H](Cc1ccc(C(F)(F)F)cc1)C(=O)O; NMeGly(cPent) = CN[C@H](C(=O)O)C1CCCC1; αMeCha = C[C@](N)(CC1CCCCC1)C(=O)O; Gly(cBu) = N[C@H](C(=O)O)C1CCC1; NMeD = CN[C@@H](CC(=O)O)C(=O)O; NMeL = CN[C@@H](CC(C)C)C(=O)O; Morpholide = C1CN(*)CCO1; NMeA = CN[C@@H](C)C(=O)O; Ac5c = NC1(C(=O)O)CCCC1; Aze = O=C(O)[C@@H]1CCN1; Sar = CNCC(=O)O

Chain of GDP-bound KRAS wild-type protein (P01116 whole entry): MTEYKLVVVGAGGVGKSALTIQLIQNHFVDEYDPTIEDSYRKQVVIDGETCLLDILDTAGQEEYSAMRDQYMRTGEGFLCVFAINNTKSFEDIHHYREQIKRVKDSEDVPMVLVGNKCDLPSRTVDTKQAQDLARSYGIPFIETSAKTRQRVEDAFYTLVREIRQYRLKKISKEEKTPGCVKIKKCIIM
Chain of GDP-bound NRAS wild-type protein (P01111 whole entry): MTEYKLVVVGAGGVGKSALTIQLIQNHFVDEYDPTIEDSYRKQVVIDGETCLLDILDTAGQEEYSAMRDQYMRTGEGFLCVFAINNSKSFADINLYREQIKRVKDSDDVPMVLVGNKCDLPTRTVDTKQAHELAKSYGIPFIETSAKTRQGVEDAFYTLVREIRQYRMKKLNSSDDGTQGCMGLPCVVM
Chain of GDP-bound HRAS wild-type protein (P01112 whole entry): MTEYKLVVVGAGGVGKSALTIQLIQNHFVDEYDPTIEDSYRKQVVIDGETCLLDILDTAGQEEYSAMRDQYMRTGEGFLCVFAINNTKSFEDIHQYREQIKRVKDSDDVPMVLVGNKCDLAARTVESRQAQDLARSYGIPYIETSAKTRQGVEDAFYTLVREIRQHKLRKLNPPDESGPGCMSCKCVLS

Consider `CCCN1C(=O)[C@@H]2CCN2C(=O)[C@H](C)N(C)C(=O)[C@H](C2CCC2)NC(=O)[C@H](CC(C)C)N(C)C(=O)C[C@@H](C(=O)N2CCOCC2)N(C)C(=O)[C@H](C2CCCC2)N(C)C(=O)C2(CCCC2)NC(=O)[C@@H]2CCCN2C(=O)[C@H](CCc2ccc(C(F)(F)F)c(Cl)c2)NC(=O)CN(C)C(=O)[C@@H]1Cc1ccc(C(F)(F)F)cc1` [PP0271] ([NMeL][Gly(cBu)][NMeA][Aze][NPrPhe(4-CF3)][Sar][hPhe(3-Cl-4-CF3)]P[Ac5c][NMeGly(cPent)][NMeD]-Morpholide; lactam N-11), for which the “NRAS/KRAS (ratio of KD value for NRAS to KD value for KRAS)” value in experiment [1] is “C (A compound having a KD ratio of 0.1 or more and less than 3 is denoted as C)”. In addition, in experiment [2] (setting [4]), the dissociation constant Kd (in general, the concentration at which binding is half-saturated) came out at 0.22 nM. The “HRAS/KRAS (ratio of KD value for HRAS to KD value for KRAS)” value in experiment [3] is “B (a compound having 3 or more and less than 10 is denoted as B)”.
As to `CCCN1C(=O)CN(C)C(=O)CN(C)C(=O)[C@H]([C@@H](C)CC)NC(=O)[C@H](CC(C)C)N(C)C(=O)C[C@@H](C(=O)N(C)C)N(C)C(=O)[C@H](C2CCCC2)N(C)C(=O)[C@](C)(CC2CCCCC2)NC(=O)[C@@H]2CCCN2C(=O)[C@H](CCc2cc(F)c(C(F)(F)F)c(F)c2)NC(=O)CN(C)C(=O)[C@@H]1Cc1ccc(C(F)(F)F)cc1` [PP0739] ([NMeL]I[Sar][Sar][NPrPhe(4-CF3)][Sar][hPhe(3,5-F2-4-CF3)]P[αMeCha][NMeGly(cPent)][NMeD]-NMe2; lactam N-11), the “NRAS/KRAS (ratio of KD value with respect to NRAS to KD value with respect to KRAS)” value in experiment [1] is “B (a compound having 3 or more and less than 10 is denoted as B)”. For the same molecule, the dissociation constant (Kd) in experiment [2] (setting [4]) came out at 3.7 nM. The “HRAS/KRAS (ratio of KD value with respect to HRAS to KD value with respect to KRAS)” value in experiment [3] is “C (A compound having a KD ratio of 0.1 or more and less than 3 is denoted as C)”.
In the case of `CCO[C@@H]1C[C@H]2C(=O)NC3(CC(C)(C)C3)C(=O)N(C)[C@@H](C3CCCC3)C(=O)N(C)[C@H](C(=O)N3CCCC3)CC(=O)N(C)[C@H]3CCCCCc4ccc(cc4)C[C@@H](C(=O)N(C)CC(=O)N[C@@H](CCc4ccc(C(F)(F)F)c(OC)c4)C(=O)N2C1)N1CC/C=C\C[C@@H](C1=O)N(C)C(=O)CN(C)C(=O)[C@H]([C@@H](C)CC)NC3=O` [PP3037, (1S,7S,11R,13S,19S,22S,26S,29S,35S,37Z)-19-cyclopentyl-11-ethoxy-7-[2-[3-methoxy-4-(trifluoromethyl)phenyl]ethyl]-3,3′,3′,18,21,25,31,34-octamethyl-29-[(1S)-1-methylpropyl]-22-(pyrrolidine-1-carbonyl)spiro[3,6,9,15,18,21,25,28,31,34,41-undecazapentacyclo[24.15.10.2^43,46.1^35,41.0^9,13]tetrapentaconta-37,43(53),44,46(52)-tetraene-16,1′-cyclobutane]-2,5,8,14,17,20,24,27,30,33,54-undecone], the “NRAS/KRAS (ratio of KD value for NRAS to KD value for KRAS)” value in experiment [1] was “A (a compound having 10 or more and less than 20 is denoted as A)”. Besides, in experiment [2] (SPR, Single Cycle Kinetics), the dissociation constant (Kd) was 0.11 nM. The “HRAS/KRAS (ratio of KD value for HRAS to KD value for KRAS)” value in experiment [3] was “B (a compound having 3 or more and less than 10 is denoted as B)”.
In the case of `CCCOC[C@H]1C(=O)N[C@@H]([C@@H](C)CC)C(=O)N(C)CC(=O)N(C)[C@H]2C/C=C\CCN(C2=O)[C@@H](Cc2ccc(C(F)(F)F)cc2)C(=O)N(C)CC(=O)N[C@@H](CCc2cc(F)c(C(F)(F)F)c(F)c2)C(=O)N2C[C@H](OCC)C[C@H]2C(=O)NC2(CC(C)(C)C2)C(=O)N(C)[C@@H](C2CCCC2)C(=O)N(C)[C@H](C(=O)N(C)CC)CC(=O)N1C` [PP1572], in experiment [1] (KD ratio class), the “NRAS/KRAS (ratio of KD value for NRAS to KD value for KRAS)” value was “A (a compound having 10 or more and less than 20 is denoted as A)”. In experiment [2] (SPR, Single Cycle Kinetics, 1:1 binding model), the Kd amounted to 0.078 nM. For the same molecule, the “HRAS/KRAS (ratio of KD value for HRAS to KD value for KRAS)” value in experiment [3] (KD ratio class) was “A (a compound having 10 or more and less than 20 is denoted as A)”.
